Reference: US12102705B2, “Peptides having inhibitory activity on muscarinic receptor M3” (AZIENDE CHIMICHE RIUNITE ANGELINI FRANCESCO—A.C.R.A.F. …, priority 2018, dated 2024)
pIC50: −log10 of the molar value. Peptide text beside a SMILES is read from it. * marks the point of attachment. Palmitoyl = CCCCCCCCCCCCCCCC(=O)*

Assays:
[1] = molecular target: T1, human muscarinic receptor M3 (Homo sapiens, UniProt P20309); assay: Inhibition of M3-acetylcholine activation, Fluo-4 NW calcium fluorescence; assay type: cell-based; conditions: 50 min, 50 min incubation, 10 nM acetylcholine
T1 construct: expressed in transfected cells; cultured in Ham's F-12 medium
Method: (§1) Epithelial stable cell line constitutively expressing human muscarinic receptor M3 was used to assess peptides activity. Cells were seeded in 96-well plates at 50% cell confluence in 100 μL of complete Ham's F-12 medium. After 24 hours, medium was removed and cells were incubated with 90 μL/well of a solution of the peptides of the invention at 100, 50 or 10 μM or DMSO as vehicle. Peptides were dissolved in Fluo-4 NW (Invitrogen) fluorescent calcium probe assay buffer containing Probenecid, following manufacturer's instructions for 50 min at 37° C. in a CO2 incubator. Afterwards, M3 activity was determined by reading the fluorescence in a FLUOstar Galaxy reader (BMG LabTechnologies) using 485 nm filter for excitation and 520 nm for emission, recording signal before and after M3 activation with 10 nM acetylcholine. Fluorescence measurements were normalized to acetylcholine maximum fluorescence signal in vehicle treated cells. Atropine (100 nM) was used as positive control for inhibition. Inhibition values of M3 activity were calculated as percentages by considering maximum fluorescence corresponding to acetylcholine-M3 activation and minimum as non-stimulated cells. Table D details inhibition values of M3 activity inhibition obtained for the peptides of invention.

[2] = molecular target: T1, human muscarinic receptor M3; assay: Time-dependent inhibition of M3 activity, Fluo-4 NW calcium fluorescence; assay type: cell-based; conditions: peptide 50 μM, read-out: % Inhibition hM3 receptor activity
Method: Peptides of invention were designed to target the intracellular region of M3. Therefore, minimum time required to detect inhibitory effect on M3 activity was evaluated. For this purpose, inhibitory effect of peptides Seq. […] Epithelial stable cell line constitutively expressing human muscarinic receptor M3 was used to assess peptides activity. Cells were seeded in 96-well plates at 50% cell confluence in 100 μL of complete Ham's F-12 medium. After 24 hours, medium was removed and cells were incubated with 90 μL/well of Fluo-4 NW (Invitrogen) fluorescent calcium probe assay buffer containing probenecid, following manufacturer's instructions at 37° C. in a CO2 incubator. Peptides (50 μM), vehicle and atropine were incubated either with the probe (1 hour pre-incubation) or during fluorescence reading (direct effect). Afterwards, M3 activity was recorded for 20 cycles and direct effect peptides were added on cycle 3 after baseline assessment. Acetylcholine was added on cycle 13. Therefore, direct effect of peptides was monitored for 25 minutes. Inhibition values of M3 activity were calculated as percentages by considering maximum fluorescence corresponding to vehicle or non-treated cells acetylcholine-M3 activation and minimum as non-stimulated cells. Table E details inhibition values of M3 activity inhibition obtained for the peptides of invention.

[3] = molecular target: T1, human muscarinic receptor M3; assay: Dose-response inhibitory effect on M3 activity (IC50); assay type: cell-based
Method: as §1
Characterization of Seq. ID No. 1, 3-8 peptides efficiency was obtained by calculating half maximal inhibitory concentration (IC50). For this purpose, experimental procedure regarding cell culture and fluorescent calcium probe assay was followed as described on Example 2. Peptides were assessed at concentrations between 0.1 and 100 μM and incubated for 1 hour together with Fluo-4 NW probe. Afterwards, M3 activity was determined by reading the fluorescence in a FLUOstar Galaxy reader (BMG LabTechnologies) using 485 nm filter for excitation and 520 nm for emission, recording signal before and after M3 activation with acetylcholine. Fluorescence measurements were standardized with regard to the maximum fluorescence signal detected with acetylcholine stimulation in vehicle treated cells. Inhibition values of M3 activity were calculated as percentages by considering maximum fluorescence corresponding to acetylcholine-M3 activation and minimum as non-stimulated cells. Percentage inhibition data was fitted to a sigmoidal curve to obtain IC50. Table F details inhibition values for IC50

[4] = tested on: sweating induced by pilocarpine; assay: Antiperspirant effect on acute administration, pilocarpine-induced mouse model of sweat secretion; assay type: in vivo, C57BL6/Rcc male mice; conditions: at 10, 30 and 100 μg
Method: This example evaluated acute effects of the peptide of invention Seq. ID No 2, pamitoylated form, in an in vivo sweating model induced by pilocarpine. This model was established using pilocarpine, a non-selective agonist of muscarinic receptors, in 11-weeks old C57BL6/Rcc male mice.
Test compound is the peptide of the invention having the following sequence (Sequence ID No. 2): • Palm-WMMRLK-NH2
Test compound was injected i.pl. on the right hind paw (10, 30 and 100 μg) 30 min before sweating stimulation. Vehicle was saline solution.
(§2) Sweating was monitored through amylase activity detection on skin surface using iodine/starch reaction. Dark sweating drops were quantified after 5 minutes induction counting number of drops per paw in each condition. Data are expressed as mean±standard error of the mean (SEM). Raw data was normalized as percentage respect to non-injected stimulated individuals (Control, 100%) and saline-injected non-stimulated individuals (Vehicle, 0%). Statistical analysis was one-way ANOVA followed by Dunnett's post-hoc multiple comparison test comparing each condition with the corresponding control group, ****p<0.0001 ***p<0.001 **p<0.01, *p<0.05

[5] = tested on: sweating induced by pilocarpine; assay: Antiperspirant effect on chronic administration, pilocarpine-induced mouse model of sweat secretion; assay type: in vivo, C57BL6/Rcc male mice; conditions: during 4 weeks treatment, 10 and 100 μg/paw
Method: This example evaluated chronic effects of peptide of invention Seq. ID No. 2, palmitoylated form, in an in vivo sweating model. This model was established using pilocarpine, a non-selective agonist of muscarinic receptors, in 11-weeks old C57BL6/Rcc male mice. Test compound was locally administered three times per week for 4 weeks (Treatment). Sweat was induced by intraplantar (i.pl) injection of pilocarpine (3 μg/paw) in the right hind paw (Sweating) on weeks 1, 2 and 4 according to the table H.
Test compound is the peptide of the invention having the following sequence (Sequence ID No. 2): • Palm-WMRLK-NH2
Test compound was injected i.pl. on the right hind paw (1, 10 and 100 μg in). Vehicle injected was saline solution.
as §2, with “condition. Sample n=5-6 individuals per group.” for “condition.”, “100%).” for “100%) and saline-injected non-stimulated individuals (Vehicle, 0%).”

T1 sequence (P20309 whole entry): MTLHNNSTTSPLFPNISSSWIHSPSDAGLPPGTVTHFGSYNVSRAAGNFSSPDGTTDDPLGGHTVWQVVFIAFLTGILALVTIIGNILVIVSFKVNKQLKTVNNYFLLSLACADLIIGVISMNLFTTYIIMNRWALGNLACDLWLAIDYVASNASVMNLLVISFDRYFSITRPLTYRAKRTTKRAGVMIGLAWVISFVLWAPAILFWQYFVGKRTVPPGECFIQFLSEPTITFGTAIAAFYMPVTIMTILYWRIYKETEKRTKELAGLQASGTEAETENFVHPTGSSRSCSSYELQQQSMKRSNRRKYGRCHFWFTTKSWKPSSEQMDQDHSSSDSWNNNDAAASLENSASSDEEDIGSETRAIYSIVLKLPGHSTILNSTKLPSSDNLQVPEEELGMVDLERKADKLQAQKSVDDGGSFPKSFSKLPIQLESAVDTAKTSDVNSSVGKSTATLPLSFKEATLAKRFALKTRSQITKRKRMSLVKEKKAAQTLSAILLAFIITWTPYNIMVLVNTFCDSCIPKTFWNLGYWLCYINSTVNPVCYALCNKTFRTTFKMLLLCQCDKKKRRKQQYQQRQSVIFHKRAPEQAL

CCCCCCCCCCCCCCCC(=O)N[C@@H](Cc1c[nH]c2ccccc12)C(=O)N[C@@H](CCSC)C(=O)N[C@@H](CCCNC(=N)N)C(=O)N[C@@H](CC(C)C)C(=O)N[C@@H](CCCCN)C(N)=O [Seq. ID No. 2 Palmitoyl, Palm-WMRLK-NH2] (Palmitoyl-WMRLK-NH2)
inhibition at 10 µM ([1]; peptide 10 μM): 62.5%
inhibition at 50 µM ([1]; peptide 50 μM): 85.4%
inhibition at 100 µM ([1]; peptide 100 μM): 88.6%
inhibition at 50 µM ([2]; 25 min, 25 minutes (direct effect)): 25.5%
inhibition at 50 µM ([2]; 60 minutes (1 hour pre-incubation)): 81%
pIC50 [3]: 5.14
reduction of sweating [4]: significantly reduced sweating
sweating inhibition [5]: significant sweating inhibition
